According to PubChem BioAssay AID488890 (Southern Research Specialized Biocontainment Screening …, 2010):
Records with an inconclusive call do not appear. The source made the active and inactive calls. How the calls were made is not given here.

Test system: Mycobacterium tuberculosis non-replicating, growth inhibition
Test: growth inhibition of non-replicating M. tuberculosis (AID 488890)

Row | SMILES | IC50
1 | CCOC(=O)CNCCC(=O)c1ccc(Br)cc1 | 4.35 µM
2 | O=C(Nc1nc2ccccc2[nH]1)c1ccc(F)cc1 | 13 µM (inactive)
3 | CCCCCCNC(=O)c1ccc(Br)o1 | < 0.1 µM
4 | O=C(NNC(=O)c1ccccc1F)c1ccc(-c2ccc(Cl)cc2)o1 | 1.53 µM
5 | Cc1nnc(N/N=C/c2ccc(-c3ccc(Br)cc3)o2)n1N | 3.49 µM
6 | COc1cccc2c1C(CO)N1C(C#N)C3CC(C(=O)O)C(C1C2)N3C (centres undefined) | 2.09 µM
7 | O=C(CNC(=O)c1cccc(F)c1)N/N=C/c1ccc([N+](=O)[O-])s1 | 10.6 µM (inactive)
8 | N/C(=N\OC(=O)c1cccs1)c1ccccc1 | 24 µM (inactive)
9 | Cc1onc(-c2ccccc2)c1C(=O)Nc1nnc(COc2ccc(Cl)cc2)s1 | 8.2 µM
10 | CCOc1ccc2nc(NC(=O)c3ccccn3)sc2c1 | 1.03 µM
11 | CCc1ccc(NC(=O)CCc2ccc(C)o2)cc1 | 9.6 µM
12 | CC(C)=CCN1CCN(CCC2=C(C)CCCC2(C)C)CC1CCO (centres undefined) | 7.56 µM
13 | O=C(CN1CCOCC1)N/N=C/c1ccc(-c2ccc(Br)cc2)o1 | 4.3 µM
14 | N#Cc1ccc(COC(=O)CCc2c[nH]c3ccccc23)cc1 | 4.68 µM
15 | O=C(COC(=O)c1cc(Cl)ccc1O)c1ccc2c(c1)OCO2 | 6.61 µM
16 | COc1cccc(CN2CCC(N(CCc3ccccc3)Cc3ccccc3)CC2)c1OC | 14.3 µM (inactive)
17 | O=C(O)c1ccccc1C(=O)NNc1ccc(Cl)cc1 | 4.09 µM
18 | COc1ccc(CCNc2cc(-c3ccccc3)nc3ncnn23)cc1 | 0.49 µM
19 | Cc1ccccc1-n1c(C)cc(/C=N/NC(=O)c2ccncc2)c1C | 0.65 µM
20 | O=C(CNC1CCCC1)Nc1ccc(N2CCCCCC2)cc1 | 10.7 µM (inactive)

Row | SMILES | IC50
21 | CC/C(=C\c1oc2cc3ccccc3cc2[n+]1CC)Nc1ccccc1 | 3.14 µM
22 | O=C(Cc1ccc(F)cc1)Nc1ccc(Cl)cn1 | 14.2 µM (inactive)
23 | O=[N+]([O-])c1cncc([N+](=O)[O-])c1Nc1cccc(O)c1 | 22.3 µM (inactive)
24 | CNC(C)C#Cc1ccc2oc3cc(C)c(C)cc3c(=O)c2c1 (centres undefined) | 7.55 µM
25 | O=C(N/N=C/c1ccc([N+](=O)[O-])o1)c1cc2ccccc2o1 | 0.46 µM
26 | CCc1ccc(NC(=O)COc2ccc3c(c2)OCO3)cc1 | 5.33 µM
27 | O=[N+]([O-])c1cc(Cl)cc(/C=N/Nc2nc3ccccc3s2)c1O | 1.8 µM
28 | Nc1nonc1C(=O)NCCN=Cc1cc(Cc2ccccc2)cc(Br)c1O | 5.63 µM
29 | Nc1ccc2c(c1)oc1ccccc12 | 2.05 µM
30 | Cc1ccc(NC(=O)CN(C)C2CCCCC2)cc1Br | 0.35 µM
31 | Cc1ccc(-n2cc(CNCCc3ncc(C)[nH]3)c(-c3ccc(F)cc3)n2)cc1 | 17.3 µM (inactive)
32 | O=C(Nc1ccc(F)cc1F)c1cc2ccccc2oc1=O | 25.1 µM (inactive)
33 | O=C(COC(=O)COc1ccc(Nc2ccccc2)cc1)NCc1ccco1 | 10.3 µM (inactive)
34 | O=C(COC(=O)c1ccc([N+](=O)[O-])s1)Nc1ccc(Cl)cn1 | 2.37 µM
35 | Clc1cccc(OCCN2CCN(CCOc3cccc(Cl)c3)CC2)c1 | 21.7 µM (inactive)
36 | CCOC(=O)Cc1c(C)nc2c(-c3cccc(Br)c3)c[nH]n2c1=O | 4.13 µM
37 | CC1=NN(C(=O)c2cc(C)nn2C)C(O)(C(F)(F)F)C1 (centres undefined) | 7.51 µM
38 | Cn1c(NC(=O)c2ccccc2)nc2ccccc21 | 2.7 µM
39 | O=C(Nc1nnc(-c2ccccn2)o1)c1cccc(Cl)c1 | 11.4 µM (inactive)
40 | COc1ccc(OC(=O)c2cc3ccccc3o2)cc1 | 18.4 µM (inactive)

Row | SMILES | IC50
41 | Cn1c(-c2cccc([N+](=O)[O-])c2)cnc1NCc1cccc(F)c1 | 29.3 µM (inactive)
42 | O=C(N/N=C/c1ccc(O)cc1)c1cccc(C(F)(F)F)c1 | 16 µM (inactive)
43 | c1ccc(Nc2nc(Nc3ccccc3)nc(N3CCNCC3)n2)cc1 | 12 µM (inactive)
44 | O=C(CC1CCCCC1)NCc1ccccc1 | 5.92 µM
45 | O=C(Nc1nc2ccccc2n1CCOc1ccc(Cl)cc1)c1ccco1 | 14.4 µM (inactive)
46 | COc1ccc(COC(=O)CCNC(=O)c2ccc(Cl)cc2)cc1 | 8.25 µM
47 | COc1ccc(C2=Nc3ccccc3OC2)cc1 | 5.2 µM
48 | CCc1ccc(NC(=O)C(=O)NNC(=O)c2cccc(OC)c2)cc1 | 1.06 µM
49 | Cc1nc2ccc(Cl)cc2nc(C)/c1=N\O | 14.4 µM (inactive)
50 | CCCc1nnc(NC(=O)c2cc3ccccc3oc2=O)s1 | 2.34 µM
51 | Cc1cccc(C2=N/C(=C\c3cccnc3)C(=O)O2)c1 | 12.8 µM (inactive)
52 | Cc1ccc2c(c1)C(=O)C(=O)N2CCCOc1ccccc1 | 22.9 µM (inactive)
53 | COc1ccccc1/C=N\Nc1cc(C)nc(-n2nc(C)cc2C)n1 | 1.77 µM
54 | CN(C)CC/C=C1\c2ccccc2Sc2cc(F)c(Cl)cc21 | 10.5 µM (inactive)
55 | Clc1ccc(SCCOCCN2CCc3ccccc3C2)cc1 | 13.5 µM (inactive)
56 | CC(=O)Nc1nc2ccccc2n1CCOc1ccccc1Cl | 5.37 µM
57 | CCOC(=O)COc1ccc2c3c(c(=O)oc2c1C)CCC3 | 14 µM (inactive)
58 | Cc1ccc(OC(=O)c2ccc(Br)o2)cc1 | 13.6 µM (inactive)
59 | O=C(COc1ccccc1)NCCSCc1ccc(Cl)cc1 | 16.4 µM (inactive)
